Data published in PubChem BioAssay AID248 (DTP/NCI, 2004).
Where “and” joins values, the source holds several entries; their conditions need not be identical. Equal entries are not always repeated. Toxic doses and inconclusive results are not listed. Cut-off read from the data, not from the text of the source: active = T/C of 150% or more; inactive = T/C below 125%.

System: L1210 leukemia ip in BDF1 mice, survival T/C
Experiment: NCI In Vivo Anticancer Drug Screen. Data for tumor model L1210 Leukemia (intraperitoneal) in B6D2F1 (BDF1) mice
Conditions: endpoint: mean survival time, higher = longer survival
Outline: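 Transplanted-tumor mice were given test agent; controls received vehicle only. Survival readings from the two groups were divided (treated over control).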

[1] = dose: 12.5 mg/kg/injection, schedule: Q01DX009 (ip), vehicle: saline
[2] = dose: 25.0 mg/kg/injection, schedule: Q01DX009 (ip), vehicle: saline
[3] = dose: 25.0 mg/kg/injection, schedule: Q04DX003 (ip), vehicle: saline
[4] = dose: 50.0 mg/kg/injection, schedule: Q01DX009 (ip), vehicle: saline
[5] = dose: 50.0 mg/kg/injection, schedule: Q04DX003 (ip), vehicle: saline
[6] = dose: 100.0 mg/kg/injection, schedule: Q01DX001 (ip), vehicle: Klucel (hydroxypropylcellulose) (HPC)
[7] = dose: 100.0 mg/kg/injection, schedule: Q04DX003 (ip), vehicle: Klucel (hydroxypropylcellulose) (HPC)
[8] = dose: 200.0 mg/kg/injection, schedule: Q01DX001 (ip), vehicle: Klucel (hydroxypropylcellulose) (HPC)
[9] = dose: 200.0 mg/kg/injection, schedule: Q04DX003 (ip), vehicle: Klucel (hydroxypropylcellulose) (HPC)
[10] = dose: 400.0 mg/kg/injection, schedule: Q04DX003 (ip), vehicle: Klucel (hydroxypropylcellulose) (HPC)
[11] = dose: 100.0 mg/kg/injection, schedule: Q01DX001 (ip), vehicle: saline
[12] = dose: 200.0 mg/kg/injection, schedule: Q01DX001 (ip), vehicle: saline
[13] = dose: 400.0 mg/kg/injection, schedule: Q01DX001 (ip), vehicle: saline
[14] = dose: 100.0 mg/kg/injection, schedule: Q01DX009 (ip), vehicle: saline with Tween-80
[15] = dose: 200.0 mg/kg/injection, schedule: Q01DX009 (ip), vehicle: saline with Tween-80
[16] = dose: 400.0 mg/kg/injection, schedule: Q01DX009 (ip), vehicle: saline with Tween-80
[17] = dose: 100.0 mg/kg/injection, schedule: Q04DX003 (ip), vehicle: saline with Tween-80
[18] = dose: 200.0 mg/kg/injection, schedule: Q04DX003 (ip), vehicle: saline with Tween-80
[19] = dose: 400.0 mg/kg/injection, schedule: Q04DX003 (ip), vehicle: saline with Tween-80
[20] = dose: 100.0 mg/kg/injection, schedule: Q01DX009 (ip), vehicle: Klucel (hydroxypropylcellulose) (HPC)
[21] = dose: 100.0 mg/kg/injection, schedule: Q04DX002 (ip), vehicle: saline with Tween-80
[22] = dose: 200.0 mg/kg/injection, schedule: Q04DX002 (ip), vehicle: saline with Tween-80
[23] = dose: 400.0 mg/kg/injection, schedule: Q04DX002 (ip), vehicle: saline with Tween-80
[24] = dose: 50.0 mg/kg/injection, schedule: Q01DX001 (ip), vehicle: carboxymethylcellulose (CMC)
[25] = dose: 100.0 mg/kg/injection, schedule: Q01DX001 (ip), vehicle: carboxymethylcellulose (CMC)
[26] = dose: 200.0 mg/kg/injection, schedule: Q01DX001 (ip), vehicle: carboxymethylcellulose (CMC)
[27] = dose: 400.0 mg/kg/injection, schedule: Q01DX001 (ip), vehicle: carboxymethylcellulose (CMC)
[28] = dose: 100.0 mg/kg/injection, schedule: Q01DX009 (ip), vehicle: saline

Measured: T/C

CCCCc1ccc(O)c(O)c1O
inactive: dose: 50.0 mg/kg/injection, schedule: Q01DX001 (sc), vehicle: olive oil, sesame oil, peanut oil 117 % of control | dose: 100.0 mg/kg/injection, schedule: Q01DX001 (sc), vehicle: olive oil, sesame oil, peanut oil 101 % of control and 106 % of control | dose: 200.0 mg/kg/injection, schedule: Q01DX001 (sc), vehicle: olive oil, sesame oil, peanut oil 101 % of control and 105 % of control | dose: 400.0 mg/kg/injection, schedule: Q01DX001 (sc), vehicle: olive oil, sesame oil, peanut oil 108 % of control

CCOc1ccc(NC(=O)C(C(C)N2CCCCC2)N2CCCCC2)cc1 (centres undefined)
inactive: dose: 12.5 mg/kg/injection, schedule: Q01DX001 (ip), vehicle: saline 94 % of control | [1] 95 % of control | dose: 12.5 mg/kg/injection, schedule: Q04DX003 (ip), vehicle: saline 97 % of control | dose: 25.0 mg/kg/injection, schedule: Q01DX001 (ip), vehicle: saline 95 % of control | [2] 92 % of control | [3] 95 % of control | dose: 50.0 mg/kg/injection, schedule: Q01DX001 (ip), vehicle: saline 90 % of control | [4] 91 % of control | [5] 92 % of control

O=C1Cc2ccccc2CNN1
inactive: dose: 100.0 mg/kg/injection, schedule: Q01DX001 (ip), vehicle: other 90 % of control | dose: 400.0 mg/kg/injection, schedule: Q01DX001 (ip), vehicle: other 102 % of control

CC(=O)Nc1nc(Cl)c(N)c(SCc2ccccc2)n1
inactive: [6] 98 % of control | [7] 91 % of control | [8] 98 % of control | [9] 92 % of control | dose: 400.0 mg/kg/injection, schedule: Q01DX001 (ip), vehicle: Klucel (hydroxypropylcellulose) (HPC) 98 % of control | [10] 92 % of control

O=C(Nc1ccccc1)c1ccc([N+](=O)[O-])cc1Cl
inactive: [7] 100 % of control | [9] 95 % of control | [10] 90 % of control

CCOC(=O)C(C(=O)OCC)C(=O)OCC
inactive: [11] 102 % of control | [12] 102 % of control | [13] 105 % of control

Cc1ccc(C)c(NC(=O)Nc2cc(C)on2)c1
inactive: [14] 86 % of control | [15] 97 % of control | [16] 94 % of control

CN(C)C=Nc1ccc([N+](=O)[O-])c2ccccc12
inactive: [17] 103 % of control | [18] 106 % of control | [19] 104 % of control

CC1=C(/C=C\C(C)=N\NC(=O)c2ccc[n+](C)c2)C(C)(C)CCC1
inactive: [1] 98 % of control | [2] 88 % of control | [4] 104 % of control and 88 % of control

CC1=NN(c2ccccc2)C(=O)C1N=Nc1ccccc1S(=O)(=O)O (centres undefined)
inactive: [11] 96 % of control | [12] 94 % of control | [13] 102 % of control

O=S(=O)(C(Cl)(Cl)Cl)C(Cl)(Cl)Cl
inactive: dose: 25.0 mg/kg/injection, schedule: Q01DX009 (ip), vehicle: Klucel (hydroxypropylcellulose) (HPC) 95 % of control | dose: 50.0 mg/kg/injection, schedule: Q01DX009 (ip), vehicle: Klucel (hydroxypropylcellulose) (HPC) 98 % of control | [20] 93 % of control

COc1ccccc1-n1c(O)c(N=Nc2ccc(Br)cc2)c(=O)n(-c2ccc(Cl)cc2)c1=S
inactive: [6] 101 % of control | [8] 107 % of control

NS(=O)(=O)c1cc(Cl)ccc1Cl
inactive: dose: 100.0 mg/kg/injection, schedule: Q01DX001 (ip), vehicle: saline with Tween-80 88 % of control | dose: 200.0 mg/kg/injection, schedule: Q01DX001 (ip), vehicle: saline with Tween-80 94 % of control | dose: 400.0 mg/kg/injection, schedule: Q01DX001 (ip), vehicle: saline with Tween-80 91 % of control

CO[CH2][Pb]([c]1ccccc1)([c]1ccccc1)[c]1ccccc1
inactive: [21] 98 % of control | [22] 94 % of control | [23] 94 % of control

CC(=O)Nc1ccc(/C=N\NC(=S)Nc2ccc3cn[nH]c3c2)cc1
inactive: [24] 100 % of control | [25] 97 % of control | [26] 103 % of control | [27] 97 % of control

O=C(O)C/C1=C/CCCCCC1
inactive: [11] 96 % of control | [28] 96 % of control | [12] 92 % of control | dose: 200.0 mg/kg/injection, schedule: Q01DX009 (ip), vehicle: saline 96 % of control | [13] 101 % of control | dose: 400.0 mg/kg/injection, schedule: Q01DX009 (ip), vehicle: saline 93 % of control

COc1ccc(OC)c(NC(=O)OCCOc2ccccc2)c1
inactive: [14] 104 % of control | [15] 107 % of control | [16] 100 % of control

OCC1CC[N-]CC1.OCC1CC[N-]CC1.[Cl][Pt+2]([Cl])([Cl])[Cl]
inactive: [1] 105 % of control | [2] 94 % of control | [3] 94 % of control | [4] 103 % of control | [5] 107 % of control | dose: 100.0 mg/kg/injection, schedule: Q04DX003 (ip), vehicle: saline 104 % of control

O=S(=O)(/C=N\N=P(c1ccccc1)(c1ccccc1)c1ccccc1)c1ccccc1-c1ccccc1
inactive: [17] 109 % of control | [18] 98 % of control | [19] 93 % of control

CCCCCCC#CC(=O)OCCCCC
inactive: [21] 96 % of control | [22] 100 % of control | [23] 96 % of control

O=C(OC1CCC/C=C\CCCC1)c1ccc(Cl)cc1 (centres undefined)
inactive: [12] 104 % of control | [13] 98 % of control

Clc1ncnc2[nH]cc(Br)c12
inactive: [24] 98 % of control | [25] 104 % of control | [26] 110 % of control | [27] 98 % of control

NS(=O)(=O)c1ccc(Cl)c([N+](=O)[O-])c1
inactive: [21] 98 % of control | [22] 91 % of control | [23] 91 % of control

Oc1ccc(-c2nnc(-c3ccccc3)nn2)cc1
inactive: dose: 100.0 mg/kg/injection, schedule: Q04DX003 (ip), vehicle: gum acacia 104 % of control | dose: 200.0 mg/kg/injection, schedule: Q04DX003 (ip), vehicle: gum acacia 95 % of control | dose: 400.0 mg/kg/injection, schedule: Q04DX003 (ip), vehicle: gum acacia 95 % of control

CO[C@H](C)[C@](O)(C(=O)OCC1=CCN2CC[C@@H](O)[C@H]12)C(C)C
inactive: dose: 65.0 mg/kg/injection, schedule: Q01DX009 (ip), vehicle: saline 95 % of control and 109 % of control | dose: 75.0 mg/kg/injection, schedule: Q01DX001 (ip), vehicle: acetone 106 % of control | [28] 95 % of control and 105 % of control | dose: 150.0 mg/kg/injection, schedule: Q01DX001 (ip), vehicle: acetone 103 % of control | dose: 150.0 mg/kg/injection, schedule: Q01DX009 (ip), vehicle: saline 94 % of control | dose: 300.0 mg/kg/injection, schedule: Q01DX001 (ip), vehicle: acetone 106 % of control

O=C(Nc1ccccc1F)OCC1CC2C=CC1C2 (centres undefined)
inactive: [20] 101 % of control | dose: 200.0 mg/kg/injection, schedule: Q01DX009 (ip), vehicle: Klucel (hydroxypropylcellulose) (HPC) 104 % of control | dose: 400.0 mg/kg/injection, schedule: Q01DX009 (ip), vehicle: Klucel (hydroxypropylcellulose) (HPC) 93 % of control

COc1cc(C)cc(C(=O)O)c1O
inactive: [26] 90 % of control

COC(=O)N1c2ccccc2C=C(NC(C)=O)C1C#N (centres undefined)
inactive: [14] 117 % of control | [17] 103 % of control | [15] 98 % of control | [18] 95 % of control | [16] 98 % of control | [19] 94 % of control

CCCC(C)NCCOC(=O)c1ccc(N)cc1 (centres undefined)
inactive: dose: 75.0 mg/kg/injection, schedule: Q01DX001 (ip), vehicle: saline 95 % of control
